Laboratory results taken from ChEMBL document CHEMBL4229348, “Structure-activity relationship studies of ultra-short peptides with potent activities against fluconazole-resistant Candida albicans” (Eur J Med Chem, 2018).
In brackets after ≈: the same amount, converted by molar mass. Activity calls are given as the source filed them. No cut-off for these calls is given here. Peptide text beside a SMILES is read from it.

Key:
Candida albicans [1] = assay: Antifungal activity against fluconazole-resistant Candida albicans ATCC 64550 after overnight incubation by CLSI broth microdilution method; format: functional
[2] = Retention time of the compound at 0.4 mM by HPLC analysis; format: physicochemical; settings: 400 µM
Candida albicans [3] = assay: Antifungal activity against fluconazole-resistant Candida albicans ATCC MYA-573 after overnight incubation by CLSI broth microdilution method; format: functional
Candida albicans [4] = assay: Antifungal activity against fluconazole-resistant Candida albicans ATCC 64124 after overnight incubation by CLSI broth microdilution method; format: functional
Candida albicans [5] = assay: Antifungal activity against fluconazole-resistant Candida albicans ATCC 96901 after overnight incubation by CLSI broth microdilution method; format: functional
Candida albicans [6] = assay: Antifungal activity against fluconazole-resistant Candida albicans ATCC 200955 after overnight incubation by CLSI broth microdilution method; format: functional
Candida albicans [7] = assay: Antifungal activity against fluconazole-resistant Candida albicans NUH-K6004 after overnight incubation by CLSI broth microdilution method; format: functional
Candida albicans [8] = assay: Antifungal activity against fluconazole-resistant Candida albicans TTSH-CALB01 after overnight incubation by CLSI broth microdilution method; format: functional
Candida albicans [9] = assay: Antifungal activity against fluconazole-resistant Candida albicans TTSH-CALB02 after overnight incubation by CLSI broth microdilution method; format: functional
Saccharomyces cerevisiae [10] = assay: Induction of membrane permeabilization in Saccharomyces cerevisiae BY4743 assessed as propidium iodide uptake at 23 uM preincubated for 2.5 hrs followed by propidium iodide addition and measured after 20 mins by bright-field and fluorescence microscopic analysis (reference value: 98%); format: functional
Candida albicans [11] = assay: Fungicidal activity against fluconazole-resistant Candida albicans ATCC 64550 at 4 times MIC incubated for overnight flowed by replating and measured after 24 hrs; format: functional, organism-based
NHDF = assay: Cytotoxicity against NHDF assessed as reduction in cell viability up to 200 uM after 5 days by CellTiter-Glo assay; format: cell-based; settings: human, 120 h
Saccharomyces cerevisiae [12] = assay: Induction of membrane permeabilization in Saccharomyces cerevisiae BY4743 assessed as propidium iodide uptake at 46 uM preincubated for 2.5 hrs followed by propidium iodide addition and measured after 20 mins by bright-field and fluorescence microscopic analysis (reference value: 98%); format: functional
Saccharomyces cerevisiae [13] = assay: Growth inhibition of Saccharomyces cerevisiae BY4743 incubated for 16 to 24 hrs; format: functional
Candida albicans [14] = assay: Potency index, ratio of omiganan MIC to compound MIC for antifungal activity against fluconazole-resistant Candida albicans ATCC 64550; format: functional
Candida albicans [15] = assay: Antifungal activity against fluconazole-susceptible Candida albicans; format: functional

| Compound | MIC (Candida albicans [1]) | Retention_time [2] | MIC (Candida albicans [3]) | MIC (Candida albicans [4]) | MIC (Candida albicans [5]) | MIC (Candida albicans [6]) | MIC (Candida albicans [7]) | MIC (Candida albicans [8]) | MIC (Candida albicans [9]) | Activity (Saccharomyces cerevisiae [10]) | Activity (Candida albicans [11]) | Activity (NHDF) | Activity (Saccharomyces cerevisiae [12]) | GI50 (Saccharomyces cerevisiae [13]) | TGI (Saccharomyces cerevisiae [13]; read-out: GI100) | Ratio (Candida albicans [14]) | MIC (Candida albicans [15]) |
| --- | --- | --- | --- | --- | --- | --- | --- | --- | --- | --- | --- | --- | --- | --- | --- | --- | --- |
| CCCC[C@H](NC(=O)[C@H](CCCCN)NC(=O)[C@H](CCCC)NC(=O)[C@H](CCCCN)NC(=O)[C@H](CCCC)NC(=O)[C@H](CCCCN)NC(=O)[C@@H](N)CCCC)C(=O)N[C@@H](CCCCN)C(N)=O (HELM PEPTIDE1{[Nle].K.[Nle].K.[Nle].K.[Nle].K.[am]}$$$$V2.0) | 1.56 µM (≈ 1.53 µg/mL) | 14 min | 3.13 µM (≈ 3.07 µg/mL) | 3.13 µM (≈ 3.07 µg/mL) | 1.56 µM (≈ 1.53 µg/mL) | 1.56 µM (≈ 1.53 µg/mL) | 1.56 µM (≈ 1.53 µg/mL) | 1.56 µM (≈ 1.53 µg/mL) | 1.56 µM (≈ 1.53 µg/mL) | 75% | Active | Non-Toxic | 100% | 5.75 µM | 5.75 µM | – | – |
| H-IKIKIKIK-NH2 | 3.13 µM | 13.4 min | – | – | – | – | – | – | – | – | – | – | – | – | – | 16 | 1.56 µM |
